# Laboratory results reported in patent US11999727B2 (Tango Therapeutics, Inc., priority 2020, dated 2024).
# Assays:
# [1] = molecular target: T1, PRMT5 (Homo sapiens, UniProt O14744); test: PRMT5 biochemical IC50 assay with SAM as cofactor; conditions: PRMT5, SAM as cofactor; read-out: SAM IC50
# T1 construct: purchased Viva (custom protein)
# [2] = test system: HAP1 MTAP-deleted cell line; test: Viability assay, MTAP-deleted cell line; assay type: cell-based; conditions: Homo sapiens, HAP1, viability, HAP1 MTAP-deleted cell line; read-out: HAP1 MTAP deleted viability
# Text: Table 1 additionally indicates IC50 values in a viability assay for the MTAP-deleted cell line (column 10), indicating the effect of treatment with compound on cell survival.
# [3] = test system: HAP1 MTAP-deleted cell line; test: SDMA in-cell western assay, HAP1 MTAP-deleted; assay type: cell-based; conditions: for IC50: Homo sapiens, HAP1, SDMA in-cell western, HAP1 MTAP-deleted, read-out: HAP 1 MTAP deleted IC50; for MTAP intact/deleted ratio: IC50 ratio HAP1 MTAP-intact / HAP1 MTAP-deleted, SDMA in-cell western
# Summary of the method: (§1)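 IC50 values come from SDMA signal quantified by in-cell western in two HAP1 lines, one with native MTAP levels and one lacking MTAP.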
# [4] = test system: HAP1 MTAP-intact cell line; test: SDMA in-cell western assay, HAP1 MTAP-intact; assay type: cell-based; conditions: Homo sapiens, HAP1, SDMA in-cell western, HAP1 MTAP-intact; read-out: MTAP HAP1 intact IC50
# Summary of the method: as §1
# [5] = molecular target: T1, PRMT5; test: PRMT5 biochemical IC50 assay with MTA as cofactor; conditions: PRMT5, MTA as cofactor; read-out: MTA IC50
# [6] = molecular target: T1, PRMT5; test: PRMT5 biochemical IC50 assay with no cofactor; conditions: PRMT5, no cofactor; read-out: No Cofactor/ rel IC50
# Text: Table 1 indicates IC50 values (μM) against PRMT5 for exemplary compounds in the presence of SAM as cofactor, with no cofactor, and with MTA as cofactor, respectively (columns 4-6). […] Ki values can be calculated from the IC50 values as described in the Examples section. As detailed in the Examples section, for the assay performed in the presence of SAM, IC50=Ki×1.5 (Ki=IC50/1.5).
# T1 sequence (O14744 whole entry): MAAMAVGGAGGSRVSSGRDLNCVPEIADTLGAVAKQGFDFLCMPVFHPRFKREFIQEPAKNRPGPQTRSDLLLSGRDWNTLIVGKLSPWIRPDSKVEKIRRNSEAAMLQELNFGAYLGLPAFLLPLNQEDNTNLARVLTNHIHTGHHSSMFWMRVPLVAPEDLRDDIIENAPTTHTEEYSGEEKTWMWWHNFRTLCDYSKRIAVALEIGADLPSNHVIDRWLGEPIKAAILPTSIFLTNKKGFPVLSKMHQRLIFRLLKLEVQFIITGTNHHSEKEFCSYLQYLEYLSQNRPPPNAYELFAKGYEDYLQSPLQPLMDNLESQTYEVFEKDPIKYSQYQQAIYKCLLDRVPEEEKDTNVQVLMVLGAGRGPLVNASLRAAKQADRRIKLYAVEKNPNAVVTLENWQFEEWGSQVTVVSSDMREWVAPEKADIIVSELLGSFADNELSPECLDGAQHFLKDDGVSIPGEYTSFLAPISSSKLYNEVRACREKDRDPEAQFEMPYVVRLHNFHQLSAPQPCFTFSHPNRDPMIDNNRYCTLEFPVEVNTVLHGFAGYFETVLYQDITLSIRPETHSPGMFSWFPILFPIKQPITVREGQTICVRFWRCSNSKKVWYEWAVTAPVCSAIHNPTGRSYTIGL
# T1 sequence (Q9BQA1 whole entry partner): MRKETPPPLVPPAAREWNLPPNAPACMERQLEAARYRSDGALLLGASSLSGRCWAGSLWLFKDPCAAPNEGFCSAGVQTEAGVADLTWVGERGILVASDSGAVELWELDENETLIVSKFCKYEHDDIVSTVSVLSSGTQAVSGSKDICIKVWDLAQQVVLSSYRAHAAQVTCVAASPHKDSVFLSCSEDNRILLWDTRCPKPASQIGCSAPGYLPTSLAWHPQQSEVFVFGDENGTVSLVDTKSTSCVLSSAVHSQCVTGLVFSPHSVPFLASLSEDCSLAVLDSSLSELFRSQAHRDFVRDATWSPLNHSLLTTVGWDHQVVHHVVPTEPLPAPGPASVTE
Structure (SMILES),IC50 [1],IC50 [2],IC50 [3],MTAP intact/deleted ratio [3],IC50 [4],IC50 [5],IC50 [6]
"Cc1cc(NC(=O)C(=O)N2C[C@@H](C)CC[C@@H]2c2ccc3sc(C4CC(C)(C)N(C)C(C)(C)C4)nc3c2)cnc1C [Compound 1315, N-(5,6-dimethylpyridin-3-yl)-2-((2R,5S)-5-methyl-2-(2-(1,2,2,6,6-pentamethylpiperidin-4-yl)benzo[d]thiazol-5-yl)piperidin-1-yl)-2-oxoacetamide]",< 0.05 µM,< 1 µM,< 0.1 µM,A (an IC50 ratio greater than or equal to 10 fold),0.1 to 1 µM,< 0.05 µM,< 0.05 µM
"COc1ncc(NC(=O)C(=O)N2C[C@@H](C)CC[C@@H]2c2ccc3sc(C[C@@H](C)N(C)C)nc3c2)cc1C(N)=O [Compound 1317, 5-(2-((2R,5S)-2-(2-((R)-2-(dimethylamino)propyl)benzo[d]thiazol-5-yl)-5-methylpiperidin-1-yl)-2-oxoacetamido)-2-methoxynicotinamide]",0.05 to 0.5 µM,< 1 µM,< 0.1 µM,A (an IC50 ratio greater than or equal to 10 fold),< 0.1 µM,< 0.05 µM,< 0.05 µM
"CCc1cc(NC(=O)C(=O)N2C[C@@H](C)CC[C@@H]2c2ccc3nn(C4CCN(C)CC4)cc3c2)cnc1N [Compound 1321, N-(6-Amino-5-ethyl-3-pyridyl)-2-[(2R,5S)-5-methyl-2-[2-(1-methyl-4-piperidyl)indazol-5-yl]-1-piperidyl]-2-oxo-acetamide]",< 0.05 µM,< 1 µM,< 0.1 µM,A (an IC50 ratio greater than or equal to 10 fold),< 0.1 µM,< 0.05 µM,< 0.05 µM
"CCc1cc(NC(=O)C(=O)N2C[C@@H](C)CC[C@@H]2c2ccc3sc([C@@H](C)CN(C)C)nc3c2)cnc1N [Compound 1324, N-(6-amino-5-ethylpyridin-3-yl)-2-((2R,5S)-2-(2-(1-(dimethylamino)propan-2-yl)benzo[d]thiazol-5-yl)-5-methylpiperidin-1-yl)-2-oxoacetamide]",< 0.05 µM,< 1 µM,< 0.1 µM,A (an IC50 ratio greater than or equal to 10 fold),< 0.1 µM,< 0.05 µM,< 0.05 µM
"CCc1cc(NC(=O)C(=O)N2C[C@@H](C)CC[C@@H]2c2ccc3sc(CN(C)C)nc3c2)cnc1N [Compound 1325, N-(6-amino-5-ethylpyridin-3-yl)-2-((2R,5S)-2-(2-((dimethylamino)methyl)benzo[d]thiazol-5-yl)-5-methylpiperidin-1-yl)-2-oxoacetamide]",0.05 to 0.5 µM,< 1 µM,< 0.1 µM,A (an IC50 ratio greater than or equal to 10 fold),< 0.1 µM,< 0.05 µM,< 0.05 µM
"Cc1ncc(NC(=O)C(=O)N2C[C@@H](C)CC[C@@H]2c2ccc3sc(C4CCN(C)CC4)nc3c2)cc1C(N)=O [Compound 1326, 2-methyl-5-(2-((2R,5S)-5-methyl-2-(2-(1-methylpiperidin-4-yl)benzo[d]thiazol-5-yl)piperidin-1-yl)-2-oxoacetamido)nicotinamide]",< 0.05 µM,< 1 µM,< 0.1 µM,A (an IC50 ratio greater than or equal to 10 fold),0.1 to 1 µM,< 0.05 µM,< 0.05 µM
"CCc1cc(NC(=O)C(=O)N2C[C@@H](C)CC[C@@H]2c2ccc3sc(C4CCN(C5CC5)CC4)nc3c2)cnc1N [Compound 1330, N-(6-amino-5-ethylpyridin-3-yl)-2-((2R,5S)-2-(2-(1-cyclopropylpiperidin-4-yl)benzo[d]thiazol-5-yl)-5-methylpiperidin-1-yl)-2-oxoacetamide]",< 0.05 µM,< 1 µM,< 0.1 µM,A (an IC50 ratio greater than or equal to 10 fold),< 0.1 µM,< 0.05 µM,< 0.05 µM
"CCN1CCC(c2nc3cc([C@H]4CC[C@H](C)CN4C(=O)C(=O)Nc4cnc(N)c(C)c4)ccc3s2)CC1 [Compound 1335, N-(6-amino-5-methylpyridin-3-yl)-2-((2R,5S)-2-(2-(1-ethylpiperidin-4-yl)benzo[d]thiazol-5-yl)-5-methylpiperidin-1-yl)-2-oxoacetamide]",< 0.05 µM,< 1 µM,< 0.1 µM,A (an IC50 ratio greater than or equal to 10 fold),< 0.1 µM,< 0.05 µM,< 0.05 µM
"CCc1cc(NC(=O)C(=O)N2C[C@@H](C)CC[C@@H]2c2ccc3sc([C@H]4C[C@@H]5CN(C)C[C@@H]5C4)nc3c2)cnc1N [Compound 1338, N-(6-amino-5-ethylpyridin-3-yl)-2-((2R,5S)-5-methyl-2-(2-((3aR,5r,6aS)-2-methyloctahydrocyclopenta[c]pyrrol-5-yl)benzo[d]thiazol-5-yl)piperidin-1-yl)-2-oxoacetamide]",< 0.05 µM,< 1 µM,< 0.1 µM,A (an IC50 ratio greater than or equal to 10 fold),< 0.1 µM,< 0.05 µM,< 0.05 µM
"CCc1cc(NC(=O)C(=O)N2C[C@@H](C)CC[C@@H]2c2ccc3sc(C4CC(C)(C)N(C)C(C)(C)C4)nc3c2)cnc1N [Compound 1340, N-(6-amino-5-ethylpyridin-3-yl)-2-((2R,5)-5-methyl-2-(2-(1,2,2,6,6-pentamethylpiperidin-4-yl)benzo[d]thiazol-5-yl)piperidin-1-yl)-2-oxoacetamide]",0.05 to 0.5 µM,< 1 µM,< 0.1 µM,A (an IC50 ratio greater than or equal to 10 fold),< 0.1 µM,< 0.05 µM,< 0.05 µM
"COc1ncc(NC(=O)C(=O)N2C[C@@H](C)CC[C@@H]2c2ccc(CCN(C)C)c(Cl)c2)cc1C(N)=O [Compound 1341, 5-(2-((2R,5S)-2-(3-chloro-4-(2-(dimethylamino)ethyl)phenyl)-5-methylpiperidin-1-yl)-2-oxoacetamido)-2-methoxynicotinamide]",0.05 to 0.5 µM,< 1 µM,< 0.1 µM,–,> 1 µM,< 0.05 µM,< 0.05 µM
"CCc1cc(NC(=O)C(=O)N2C[C@@H](C)CC[C@@H]2c2cccc([C@H]3CCN(C)C3)c2)cnc1N [Compound 1342, N-(6-amino-5-ethylpyridin-3-yl)-2-((2R,5S)-5-methyl-2-(3-(1-methylpyrrolidin-3-yl)phenyl)piperidin-1-yl)-2-oxoacetamide]",< 0.05 µM,< 1 µM,< 0.1 µM,A (an IC50 ratio greater than or equal to 10 fold),0.1 to 1 µM,< 0.05 µM,< 0.05 µM
"CCc1cc(NC(=O)C(=O)N2C[C@@H](C)CC[C@@H]2c2ccc3sc(C4(CN(C)C)CC4)nc3c2)cnc1N [Compound 1347, N-(6-amino-5-ethylpyridin-3-yl)-2-((2R,5S)-2-(2-(1-((dimethylamino)methyl)cyclopropyl)benzo[d]thiazol-5-yl)-5-methylpiperidin-1-yl)-2-oxoacetamide]",0.05 to 0.5 µM,< 1 µM,< 0.1 µM,A (an IC50 ratio greater than or equal to 10 fold),< 0.1 µM,< 0.05 µM,< 0.05 µM
"CCc1cc(NC(=O)C(=O)N2C[C@@H](C)CC[C@@H]2c2cccc(OCC3CCN(C)CC3)c2)cnc1N [Compound 1348, N-(6-amino-5-ethylpyridin-3-yl)-2-((2R,5S)-5-methyl-2-(3-((1-methylpiperidin-4-yl)methoxy)phenyl)piperidin-1-yl)-2-oxoacetamide]",< 0.05 µM,< 1 µM,< 0.1 µM,A (an IC50 ratio greater than or equal to 10 fold),< 0.1 µM,< 0.05 µM,< 0.05 µM
"COc1ncc(NC(=O)C(=O)N2C[C@@H](C)CC[C@@H]2c2cccc(OCCN(C)C)c2)cc1C(N)=O [Compound 1352, 5-(2-((2R,5S)-2-(3-(2-(dimethylamino)ethoxy)phenyl)-5-methylpiperidin-1-yl)-2-oxoacetamido)-2-methoxynicotinamide]",< 0.05 µM,< 1 µM,< 0.1 µM,–,> 1 µM,< 0.05 µM,< 0.05 µM
"C[C@H]1CC[C@H](c2ccc3sc(CN(C)C)nc3c2)N(C(=O)C(=O)Nc2cnc(N)c(C3CC3)c2)C1 [Compound 1354, N-(6-Amino-5-cyclopropyl-3-pyridyl)-2-[(2R,5S)-2-[2-[(dimethylamino)methyl]-1,3-benzothiazol-5-yl]-5-methyl-1-piperidyl]-2-oxo-acetamide]",0.05 to 0.5 µM,< 1 µM,< 0.1 µM,A (an IC50 ratio greater than or equal to 10 fold),< 0.1 µM,< 0.05 µM,< 0.05 µM
